Measurements from ChEMBL document CHEMBL2046305, “Discovery of selective menaquinone biosynthesis inhibitors against Mycobacterium tuberculosis” (J Med Chem, 2012).
≈ marks a conversion by molar mass, not a printed value.

What was measured:
[1] = test system: Mycobacterium tuberculosis; assay: Antibacterial activity against isoniazid-resistant Mycobacterium tuberculosis H37Rv by microplate alamar blue assay; assay type: functional
[2] = test system: Mycobacterium tuberculosis; assay: Antibacterial activity against rifampicin-resistant Mycobacterium tuberculosis H37Rv by microplate alamar blue assay; assay type: functional

Q: For `CCCCCC[C@H](CN1CCC(COc2cccc(C(=O)c3ccc(Cl)cc3)c2)CC1)OC(N)=O`, which MIC [1] is on record?
A: Its MIC is 2.91 µg/mL (≈ 5.81 µM).

Q: What about the MIC [2] of the same molecule?
A: Its MIC is 2.91 µg/mL (≈ 5.81 µM).

Q: Which results are given for `CCCCCC[C@H](CN1CCC(COc2cccc(/C(=N\OC)c3ccc(Cl)cc3)c2)CC1)OC(N)=O`?
A: MIC [1]: 1.52 µg/mL (≈ 2.87 µM); MIC [2]: 1.51 µg/mL (≈ 2.85 µM)

Q: What does the source list for `NNC(=O)c1ccncc1` [ISONIAZID]?
A: MIC [1]: > 8 µg/mL; MIC [2]: 0.05 µg/mL (≈ 0.365 µM)

Q: How did the MIC [1] turn out when `CO[C@H]1/C=C/O[C@@]2(C)Oc3c(C)c(O)c4c(O)c(c(/C=N/N5CCN(C)CC5)c(O)c4c3C2=O)NC(=O)/C(C)=C\C=C\[C@H](C)[C@H](O)[C@@H](C)[C@@H](O)[C@@H](C)[C@H](OC(C)=O)[C@@H]1C` [RIFAMPIN] was run?
A: The MIC was 0.03 µg/mL (≈ 0.0365 µM).

Q: What about the MIC [2] of the same molecule?
A: Its MIC is over 4 µg/mL.
